Data published in patent US20210262008A1, “METHOD OF PERSONALIZED TREATMENT FOR CARDIOMYOPATHY AND HEART FAILURE AND OTHER RELATED DISEASES BY MEASURING RENIN ACTIVITY, PRO-RENIN, PRO-RENIN RECEPTOR LEVELS IN BLOOD” (priority 2018, published 2021).
Read-outs that look alike come from different tables or passages of the source.

Columns and labels:
[1] = system: female mice with dilated cardiomyopathy (DCM); experiment: Echocardiography of DCM mice at 90 days of age; format: in vivo, mouse
[2] = system: female mice with dilated cardiomyopathy (DCM); experiment: Plasma Ang II, aldosterone and HF biomarkers by enzyme immunoassay in DCM mice at 90 days; format: in vivo, mouse; conditions: for plasma aldosterone levels: 100 mg/kg/day oral, 100 mg/kg/day
Description: Mice: In the Examples 1-3 below, the mice used were all female littermates with or without dilated cardiomyopathy (DCM) on a C57BL/6 background. DCM is a major cause of HF, which is associated with pathological dilation of the heart ventricles and declines in heart contractile or systolic function. DCM mice express transgene dominant negative CREB transcription factor, specific to cardiomyocytes and develop a consistent progressive DCM and HF similar to humans. In female mice with DCM renal function remains within normal range up to the terminal HF stage, as measured by plasma BUN and creatinine. DCM mice (mCREBTg) are slightly hypotensive at 91 days of age compared to mCREB WT. mCREB mice were randomly assigned to experimental groups. Groups were denoted as WT (n=20), DCM (Control, n=28), and DCM+direct renin inhibitor treatment (+DRI, n=29). At 90-day censorship, dissected organs were weighed, and terminal blood was collected via cardiocentesis with EDTA-aprotinin syringes to prevent proteolysis of targeted proteins. The blood samples were centrifuged at 3000 rpm for 20 min at 4° C. Plasma samples were aliquoted and stored at −80° C. until analysis.
(§1) Dose calculations were based on an average consumption of 5 mL of water/day/mouse. […] The oral dose was chosen to closely mimic the human route of delivery, while not altering the blood pressure, associated with elevated plasma Ang II-aldosterone levels, given the low bioavailability of the drug in rodents. […] No issues with palatability or clinical dehydration were noted throughout the study as assessed by blinded husbandry and veterinary staff. […] The administration was started at 50 days of age to coincide with the previously identified timeline of increased renin activity and development of stage B HF in female DCM mice]. Aliskiren water was provided ad libitum throughout life. All untreated mice (WT and DCM+vehicle) received ad lib 3 ppm hyperchlorinated facility water via an automated watering system (Edstrom, Waterford, Wis., USA).
Enzyme Immunoassay: Plasma Ang II, aldosterone, atrial natriuretic peptide (N terminus-ANP), cyclic guanosine monophosphate (cGMP), neprilysin, and corin levels were measured by enzyme immunoassays according to the manufacturers' protocols (Phoenix Pharm. Inc., Burlingame, Calif., USA; Abcam Inc., Cambridge, Mass., USA; Enzo Life Sciences Inc., Farmingdale, N.Y., USA; Boster Biological Technology, Pleasanton, Calif., USA; USCN Life Science Inc., Houston, Tex., USA).

[3] = orally in rats; cited from earlier work
[4] = in humans; cited from earlier work
[5] = target: T1, mouse renin (Mus musculus, UniProt P06281); experiment: Plasma renin activity assay (FRET substrate) in plasma of treated DCM mice; format: in vivo; conditions: female DCM mice, 100 mg/kg/day orally in drinking water from 50 days of age, measured at 90 days, vs DCM control
T1 construct: from tissue; host or cells: plasma (terminal blood, cardiocentesis) of female DCM (mCREB transgenic) mice on a C57BL/6 background
T1 sequence (P06281 72-402): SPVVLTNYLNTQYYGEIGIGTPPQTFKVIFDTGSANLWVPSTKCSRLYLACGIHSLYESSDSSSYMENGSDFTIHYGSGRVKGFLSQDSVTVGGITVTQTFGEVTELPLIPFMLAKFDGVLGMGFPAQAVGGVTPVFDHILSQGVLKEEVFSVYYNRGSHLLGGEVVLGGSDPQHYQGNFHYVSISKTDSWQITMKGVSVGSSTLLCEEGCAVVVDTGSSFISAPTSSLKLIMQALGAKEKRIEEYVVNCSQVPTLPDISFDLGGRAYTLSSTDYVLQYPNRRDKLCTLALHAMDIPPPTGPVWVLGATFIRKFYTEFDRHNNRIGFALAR
Experimental: Plasma samples were aliquoted and stored at −80° C. until analysis.

[6] = system: female mice with dilated cardiomyopathy (DCM); experiment: Kaplan-Meier survival of female DCM mice; format: in vivo, mouse
Description: Mice: In the Examples 1-3 below, the mice used were all female littermates with or without dilated cardiomyopathy (DCM) on a C57BL/6 background. DCM is a major cause of HF, which is associated with pathological dilation of the heart ventricles and declines in heart contractile or systolic function. DCM mice express transgene dominant negative CREB transcription factor, specific to cardiomyocytes and develop a consistent progressive DCM and HF similar to humans. In female mice with DCM renal function remains within normal range up to the terminal HF stage, as measured by plasma BUN and creatinine. DCM mice (mCREBTg) are slightly hypotensive at 91 days of age compared to mCREB WT. mCREB mice were randomly assigned to experimental groups. […]
Dose calculations were based on an average consumption of 5 mL of water/day/mouse. […] No issues with palatability or clinical dehydration were noted throughout the study as assessed by blinded husbandry and veterinary staff. […]
Statistical Analysis: Statistical analyses were performed with GraphPad Prism 7.04 software (GraphPad Software, La Jolla, Calif., USA) using Student's t-test, one-way ANOVA, or two-way ANOVA with Tukey's multiple comparisons test (unless otherwise indicated) and Pearson's correlation. Survival was analyzed using Kaplan-Meier curves with the Mantel-Cox test. […]

[7] = system: mice; conditions: mouse, in vivo
Experimental: as §1

[8] = system: blood pressure; conditions: 15-50 mg/kg/day via subcutaneous osmotic pumps, previous studies; cited from earlier work

Compound: COCCCOc1cc(C[C@@H](C[C@H](N)[C@@H](O)C[C@H](C(=O)NCC(C)(C)C(N)=O)C(C)C)C(C)C)ccc1OC [aliskiren, aliskiren hemifumarate]
- heart rate ([1]; anesthetized, control 419±10 bpm, P<0.01): 469±14 bpm
- cardiac output (CO mL/min) ([1]; vs control DCM mice, P<0.01): improved
- systolic function, ejection fraction (EF %) ([1]; vs control DCM mice, P<0.05): improved
- systolic function, fractional shortening (FS %) ([1]; vs control DCM mice, P<0.05): improved
- plasma Ang II levels ([2]; female DCM mice, 100 mg/kg, DCM+DRI vs DCM+vehicle): no significant difference
- plasma aldosterone levels ([2]; female DCM mice, vs DCM control): not modulated by treatment
- plasma aldosterone levels ([2]; female DCM mice, vs DCM control, listed as DRI-aliskiren): no significant difference
- ANP plasma levels ([2]; vs DCM control): not affected
- corin plasma levels ([2]; vs DCM control): not affected
- plasma cGMP levels ([2]; vs DCM control): non-significant trend toward lower levels
- plasma neprilysin levels ([2]; vs DCM control, P<0.001, listed as DRI): normalized plasma neprilysin levels
- plasma neprilysin levels ([2]; vs DCM control, P<0.001, listed as DRI-aliskiren): lowered neprilysin to WT levels
- bioavailability [3]: 2.6%
- bioavailability [4]: low
- plasma renin activity (PRA) [5]: significantly reduced elevated PRA to normal levels
- plasma renin activity (PRA) ([5]; listed as DRI-aliskiren): normalized pathological renin activity
- median survival ([6]; 100 mg/kg/day oral, control 103 days, P<0.05): 110 days
- outlived the control mice (survival gain) ([6]; median survival vs control): 7%
- palatability or clinical dehydration [7]: No issues
- side effects / abnormal clinical observations ([7]; 100 mg/kg/day): no side effects or abnormal clinical observations
- blood pressure [8]: no alteration in blood pressure
